Assay results taken from PMC12657586, “Therapeutic effect of an MRGPRX2/MRGPRB2 antagonist on LL-37-induced rosacea-like inflammation in mice” (Inflammation Research, 2025).

Biological target: T1, MRGPRX2 (Mas-related G protein-coupled receptor X2) (Homo sapiens, UniProt Q96LB1)
T1 sequence (Q96LB1 1-330): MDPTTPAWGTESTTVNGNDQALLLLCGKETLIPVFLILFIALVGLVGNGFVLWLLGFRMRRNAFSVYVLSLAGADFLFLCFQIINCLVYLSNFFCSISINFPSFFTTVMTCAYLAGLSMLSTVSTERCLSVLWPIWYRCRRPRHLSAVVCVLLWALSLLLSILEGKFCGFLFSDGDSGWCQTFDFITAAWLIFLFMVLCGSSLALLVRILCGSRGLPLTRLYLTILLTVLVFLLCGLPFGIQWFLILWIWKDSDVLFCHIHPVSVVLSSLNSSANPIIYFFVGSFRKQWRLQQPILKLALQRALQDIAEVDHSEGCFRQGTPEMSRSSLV
Experiment: Fluo-4 calcium flux assay in MRGPRX2-transfected HEK-293 cells, antagonism of LL-37
Assay type: cell-based

IC50: 12.3 µM
SMILES: COC(=O)c1cc2cc(NC(N)=O)ccc2cc1-c1cc2c3c(c(O)ccc3c1)C(C)C(C=O)=C2 (stereo not shown) [GE1111]
